How the values were obtained:
[1] = Water solubility in sensory oil (solvency of the oil for water); type: physicochemical; settings: yes/no
Source text: (§1) A sensory oil can be used in the antibacterial composition to assist in leaving the user with a non-tacky feeling to the skin after application of the composition. The antibacterial composition comprises a sensory oil in an amount of 0.01 to 10% by weight, preferably 0.5 to 5% by weight including all values and ranges subsumed therein. The sensory oil can comprise a soluble sensory oil. Sensory oils desirable for use in the antibacterial composition disclosed herein must meet the following criteria: the sensory oil must be liquid, the sensory oil must be soluble in at least a 75/25 or higher ratio of EtOH/Water which is to be reflective of solubility in the final composition to give a clear final antibacterial composition, and the sensory oil must have no solvency for water.
(§2) The examples are not meant to limit the materials that can be used but merely to illustrate oil type and level selected based on three criteria. […] Finally, the preferred oil must itself not have solvency for water such that during application and on drying as the ethanol and water evaporate, the water is also allowed to quickly evaporate leaving behind only the oil and any skin benefit actives/moisturizers if present.

[2] = Solubility of sensory oil in 75/25 EtOH/Water blend; type: physicochemical
Source text: as §1, §2

cells = assay: Wound healing (scratch closure) assay; type: cell-based; settings: 24 hours after scratch
Method: In this example, various combinations of benefit agents were tested for resilience wound healing and barrier repair. For wound healing assessments, cells were grown to 80% confluency and treated with bioactives for 24 to 36 hours. Post treatment, a scratch was created on the cell and closure of the wound was monitored after 24 hours of incubation. Closure of the scratch area was calculated as a % closure of the wound. Microscopic images were captured at a magnification of 4× and the open wound area measurements were analyzed using the software CellSens. Wound closure in percentage=(mean of the readings of the open wound area at (t=24)−mean of the readings of the open wound area at (t=0)/mean of the readings at (t=0))*100.

melanin content of cells = assay: Melanin content assay; type: cell-based; settings: for % Inhibition in Melanin Content: 72 hours incubation
Method: In this Example, cells were grown for 24 hours and treated with bioactives and incubated for 72 hours. Post treatment, the cells were lysed and absorbance measured at 405 nm. The lysate was transferred to a fresh 384-well clear flat bottom plate and an […] was measured at 405 nm using a FlexStation 3 reader. (% reduction in melanin content was measured by taking the mean absorbance value of the control−the mean absorbance value of the treated cells/the mean absorbance value of the control)*100

| Molecule | Water solubility in sensory oil [1] | Solubility in 75/25 EtOH/Water [2] [%] | other results |
| --- | --- | --- | --- |
| PPG-2 Isoceteth-20 Acetate | no | >30 | – |
| Isocetyl alcohol | No | <10 | – |
| CCCCCCCCCCCCOC(=O)C(C)O (centres unmarked) [Lauryl lactate] | No | >30 | – |
| CCCCC(CC)COC(=O)CCCCCCCCC(=O)OCC(CC)CCCC (centres unmarked) [Diethyl hexyl sebacate] | No | <10 | – |
| NC(=O)c1cccnc1 [Vitamin B3, niacinamide] | – | – | % Closure in Scratch Area (cells; 0.2%): 30%; % Inhibition in Melanin Content (melanin content of cells; 0.2%): 7.47% |
| Dicapryl maleate | No | <10 | – |
| Sodium Hyaluronate | – | – | % Closure in Scratch Area (cells; 0.001%): 51%; % Inhibition in Melanin Content (melanin content of cells; 0.001%): 9.09% |
| CC(C)OC(=O)CCCCC(=O)OC(C)C [Disopropyl adipate] | No | >30 | – |
| Glyceryl Monoleate | yes | >30 | – |
| PPG-2-Isoceteth-2 | Yes | >30 | – |
| CCCCC(CC)COC(=O)CCCCC(=O)OCC(CC)CCCC (centres unmarked) [Diethylhexyl adipate] | No | <10 | – |
| tocopherol [Vitamin E] | – | – | % Closure in Scratch Area (cells; 0.001%): 32%; % Closure in Scratch Area (cells; 0.05%): 48%; % Inhibition in Melanin Content (melanin content of cells; 0.001%): 3.56%; % Inhibition in Melanin Content (melanin content of cells; 0.05%): 15.62% |
| CCCCC(CC)COC(=O)CC(O)C(=O)OCC(CC)CCCC (centres unmarked) [Diethyl hexyl malate] | No | >30 | – |
| CCCCCCc1ccc(O)cc1O [4-Hexyl resorcinol, reference compound] | – | – | inhibition at 10 µM (melanin content of cells; 10 micromolar, read-out: % inhibition in melanin content (benchmark)): ~33% |

— patent US20230301883A1, “MOISTURIZING ANTIBACTERIAL COMPOSITION” (priority 2020, published 2023)
